Laboratory results taken from patent publication US8633183B2 (priority 2010, dated 2014).

Biological target: PI3Kalpha (Homo sapiens (Human), UniProt P42336)
Details: read-out: IC50 PI3K
Protocol: Plot the concentration of each compound versus the emission ratio. […] Determination of IC50 values can be obtained by curve fitting (sigmoidal dose response, variable slope) using Prism software from GraphPad).
Method Type: Filter-Binding-Assay
Compounds are serially diluted in assay buffer+6% DMSO and 10 μl of each dilution is added per well of a 96-well plate (compounds are tested in duplicates) and mixed with 30 μl of the lipid vesicles containing PDGFR-Peptide (0.5 μM final) and PI3K alpha (25 ng/well final). The mixture is then incubated for 20 minutes at room temperature. Subsequently, 20 μl of assay buffer containing 3 μM cold ATP and 0.5 μCi/20 μl 33P-ATP are added. The plates are then incubated at room temperature for 120 minutes (shaking with 300 rpm). The reaction mix is transferred onto filter plates using “filtermate harvester” from Packard: filter plates are rinsed with PBS, then the reaction mix is filtered onto the filter plate, washed 5 times with PBS and are allowed to dry for 30-60 minutes at 50° C.
As positive control serve wells containing vehicle controls (1% DMSO in assay buffer), showing non-inhibited kinase activity (high values). Wells containing assay buffer instead of enzyme can serve as control for background activity (low values).
Calculate IC50 values using the Smiley program (based on GrapPad Prism)

Sequence of PI3Kalpha (P42336 whole entry, looked up): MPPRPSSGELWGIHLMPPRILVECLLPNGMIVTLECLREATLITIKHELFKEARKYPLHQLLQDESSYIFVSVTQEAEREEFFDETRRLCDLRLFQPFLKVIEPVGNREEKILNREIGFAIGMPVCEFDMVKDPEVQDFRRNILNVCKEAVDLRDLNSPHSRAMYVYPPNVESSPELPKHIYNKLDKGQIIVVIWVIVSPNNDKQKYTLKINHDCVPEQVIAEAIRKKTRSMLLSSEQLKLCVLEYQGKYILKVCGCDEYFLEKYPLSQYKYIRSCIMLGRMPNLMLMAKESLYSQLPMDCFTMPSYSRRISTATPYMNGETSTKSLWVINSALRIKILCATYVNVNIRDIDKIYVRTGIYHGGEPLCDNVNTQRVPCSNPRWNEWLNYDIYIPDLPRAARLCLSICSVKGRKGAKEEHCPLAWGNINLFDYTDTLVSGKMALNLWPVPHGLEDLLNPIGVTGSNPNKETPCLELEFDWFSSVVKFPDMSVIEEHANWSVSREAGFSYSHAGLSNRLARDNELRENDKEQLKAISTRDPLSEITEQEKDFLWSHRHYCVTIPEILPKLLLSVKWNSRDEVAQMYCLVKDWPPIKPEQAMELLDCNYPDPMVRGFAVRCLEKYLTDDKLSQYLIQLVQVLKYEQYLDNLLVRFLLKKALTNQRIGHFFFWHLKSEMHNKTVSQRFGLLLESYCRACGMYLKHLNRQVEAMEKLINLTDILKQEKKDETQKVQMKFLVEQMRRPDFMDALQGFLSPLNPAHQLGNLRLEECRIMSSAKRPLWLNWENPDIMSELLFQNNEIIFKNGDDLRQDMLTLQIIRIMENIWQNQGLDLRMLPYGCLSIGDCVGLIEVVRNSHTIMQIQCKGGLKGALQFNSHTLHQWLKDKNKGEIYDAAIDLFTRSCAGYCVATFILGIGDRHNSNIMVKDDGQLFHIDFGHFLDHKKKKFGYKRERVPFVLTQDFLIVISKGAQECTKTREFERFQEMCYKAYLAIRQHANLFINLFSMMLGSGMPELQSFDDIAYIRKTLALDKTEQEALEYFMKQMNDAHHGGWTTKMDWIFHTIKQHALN

Compound: CCc1ncnc(-c2ccc(C(=O)N3CCN(C4COC4)CC3)c(Cl)c2)c1C#Cc1ccc(N)nc1 [Example E-273]
- IC50: 119 nM

Compound: CCc1ncnc(-c2ccc(C(=O)N3CCC(CN(C)C)CC3)c(Cl)c2)c1C#Cc1ccc(N)nc1 [Example E-274]
- IC50: 445 nM

Compound: CCc1ncnc(-c2cc(F)c(C(=O)N3CCN(C4COC4)CC3)c(F)c2)c1C#Cc1ccc(N)nc1 [Example E-275]
- IC50: 141 nM

Compound: CCc1ncnc(-c2ccc(C(=O)N3CCN(C4COC4)CC3)c(F)c2)c1C#Cc1ccc(N)nc1C [Example E-280]
- IC50: 153 nM

Compound: CCc1ncnc(-c2ccc(C(=O)N3CCC(CN(C)C)CC3)c(F)c2)c1C#Cc1ccc(N)nc1C [Example E-281]
- IC50: 679 nM

Compound: CCc1ncnc(-c2cc(F)c(C(=O)N3CCN(C4COC4)CC3)c(Cl)c2)c1C#Cc1ccc(N)nc1 [Example E-282]
- IC50: 173 nM

Compound: CCc1ncnc(-c2cc(F)c(C(=O)N3CCC(CN(C)C)CC3)c(Cl)c2)c1C#Cc1ccc(N)nc1 [Example E-283]
- IC50: 446 nM

Compound: CCc1ncnc(-c2ccc(C(=O)N3CCN(CCN)CC3)c(Cl)c2)c1C#Cc1ccc(N)nc1 [Example E-284]
- IC50: 181 nM

Compound: CCc1ncnc(-c2cc(F)c(C(=O)N3CCC(CN)CC3)c(Cl)c2)c1C#Cc1ccc(N)nc1 [Example E-285]
- IC50: 647 nM

Compound: CCc1ncnc(-c2cc(F)c(C(=O)N3CCN(CCN)CC3)c(Cl)c2)c1C#Cc1ccc(N)nc1 [Example E-286]
- IC50: 527 nM

Compound: CCc1ncnc(-c2ccc(C(=O)N3CC4(CN(C)C4)C3)c(F)c2)c1C#Cc1ccc(N)nc1 [Example E-287]
- IC50: 288 nM

Compound: CCc1ncnc(-c2cc(F)c(C(=O)N3CC4(CN(C)C4)C3)c(Cl)c2)c1C#Cc1ccc(N)nc1 [Example E-289]
- IC50: 298 nM

Compound: CCc1ncnc(-c2ccc(C(=O)N3CCN(Cc4cc(C)no4)CC3)c(F)c2)c1C#Cc1ccc(N)nc1 [Example E-290]
- IC50: 200 nM

Compound: CCc1ncnc(-c2ccc(C(=O)N3CCN(C(C)COC)CC3)c(F)c2)c1C#Cc1ccc(N)nc1 (stereo not shown) [Example E-291]
- IC50: 220 nM

Compound: CCc1ncnc(-c2ccc(C(=O)N3CCN(C(C)CO)CC3)c(F)c2)c1C#Cc1ccc(N)nc1 (stereo not shown) [Example E-292]
- IC50: 212 nM

Compound: CCc1ncnc(-c2ccc(C(=O)N3CCN(C4CCCC4O)CC3)c(F)c2)c1C#Cc1ccc(N)nc1 (stereo not shown) [Example E-294]
- IC50: 137 nM

Compound: CCc1ncnc(-c2ccc(C(=O)N3CCN(CC(C)O)CC3)c(F)c2)c1C#Cc1ccc(N)nc1 (stereo not shown) [Example E-296]
- IC50: 122 nM

Compound: CCc1ncnc(-c2cc(F)c(C(=O)N3CCN(C(C)COC)CC3)c(F)c2)c1C#Cc1ccc(N)nc1 (stereo not shown) [Example E-298]
- IC50: 187 nM

Compound: CCc1ncnc(-c2cc(F)c(C(=O)N3CCN(C(C)CO)CC3)c(F)c2)c1C#Cc1ccc(N)nc1 (stereo not shown) [Example E-299]
- IC50: 160 nM

Compound: CCc1ncnc(-c2cc(F)c(C(=O)N3CCN(Cc4nc(C)c(C)o4)CC3)c(F)c2)c1C#Cc1ccc(N)nc1 [Example E-300]
- IC50: 783 nM

Compound: CCc1ncnc(-c2cc(F)c(C(=O)N3CCN(C4CCCC4O)CC3)c(F)c2)c1C#Cc1ccc(N)nc1 (stereo not shown) [Example E-301]
- IC50: 106 nM

Compound: CCc1ncnc(-c2cc(F)c(C(=O)N3CCN(CCOCCO)CC3)c(F)c2)c1C#Cc1ccc(N)nc1 [Example E-302]
- IC50: 113 nM

Compound: CCc1ncnc(-c2cc(F)c(C(=O)N3CCN(Cc4cc(C)no4)CC3)c(Cl)c2)c1C#Cc1ccc(N)nc1 [Example E-304]
- IC50: 108 nM

Compound: CCc1ncnc(-c2cc(F)c(C(=O)N3CCN(C(C)COC)CC3)c(Cl)c2)c1C#Cc1ccc(N)nc1 (stereo not shown) [Example E-305]
- IC50: 110 nM

Compound: CCc1ncnc(-c2cc(F)c(C(=O)N3CCN(C(C)CO)CC3)c(Cl)c2)c1C#Cc1ccc(N)nc1 (stereo not shown) [Example E-306]
- IC50: 108 nM

Compound: CCc1ncnc(-c2cc(F)c(C(=O)N3CCN(Cc4nc(C)c(C)o4)CC3)c(Cl)c2)c1C#Cc1ccc(N)nc1 [Example E-307]
- IC50: 193 nM

Compound: CCc1ncnc(-c2cc(F)c(C(=O)N3CCN(C4CCCC4O)CC3)c(Cl)c2)c1C#Cc1ccc(N)nc1 (stereo not shown) [Example E-308]
- IC50: 63.4 nM

Compound: CCc1ncnc(-c2cc(F)c(C(=O)N3CCN(CC(C)O)CC3)c(Cl)c2)c1C#Cc1ccc(N)nc1 (stereo not shown) [Example E-309]
- IC50: 239 nM

Compound: CCc1ncnc(-c2cc(F)c(C(=O)N3CCN(CCOCCO)CC3)c(Cl)c2)c1C#Cc1ccc(N)nc1 [Example E-310]
- IC50: 86 nM

Compound: CCc1ncnc(-c2cc(F)c(C(=O)N3CCC4(CC3)CC(=O)CO4)c(Cl)c2)c1C#Cc1ccc(N)nc1 [Example E-311]
- IC50: 69.1 nM

Compound: CCc1ncnc(-c2ccc(C(=O)N3CCN(Cc4cc(C)no4)CC3)c(Cl)c2)c1C#Cc1ccc(N)nc1 [Example E-312]
- IC50: 110 nM

Compound: CCc1ncnc(-c2ccc(C(=O)N3CCN(C(C)COC)CC3)c(Cl)c2)c1C#Cc1ccc(N)nc1 (stereo not shown) [Example E-313]
- IC50: 122 nM

Compound: CCc1ncnc(-c2ccc(C(=O)N3CCN(Cc4nc(C)c(C)o4)CC3)c(Cl)c2)c1C#Cc1ccc(N)nc1 [Example E-315]
- IC50: 127 nM

Compound: CCc1ncnc(-c2ccc(C(=O)N3CCN(C4CCCC4O)CC3)c(Cl)c2)c1C#Cc1ccc(N)nc1 (stereo not shown) [Example E-316]
- IC50: 57.1 nM

Compound: CCc1ncnc(-c2ccc(C(=O)N3CCN(CC(C)O)CC3)c(Cl)c2)c1C#Cc1ccc(N)nc1 (stereo not shown) [Example E-317]
- IC50: 92.8 nM

Compound: CCc1ncnc(-c2ccc(C(=O)N3CCN(CCOCCO)CC3)c(Cl)c2)c1C#Cc1ccc(N)nc1 [Example E-318]
- IC50: 107 nM

Compound: CCc1ncnc(-c2ccc(C(=O)N3CCC4(CC3)CC(NC(=O)OC(C)(C)C)C4)c(F)c2)c1C#Cc1ccc(N)nc1 [Example E-319]
- IC50: 360 nM

Compound: CCc1ncnc(-c2ccc(C(=O)N3CCC4(CC3)CC(N)C4)c(F)c2)c1C#Cc1ccc(N)nc1 [Example E-320]
- IC50: 1300 nM

Compound: CCc1ncnc(-c2ccc(C(=O)N3CCC4(CC3)CN(C(=O)OC(C)(C)C)CCO4)c(F)c2)c1C#Cc1ccc(N)nc1 [Example E-321]
- IC50: 412 nM

Compound: CCc1ncnc(-c2ccc(C(=O)N3CCC4(CC3)CNCCO4)c(F)c2)c1C#Cc1ccc(N)nc1 [Example E-322]
- IC50: 391 nM

Compound: CCc1ncnc(-c2ccc(C(=O)N3CCC4(CN(C(=O)OC(C)(C)C)C4)C3)c(F)c2)c1C#Cc1ccc(N)nc1 [Example E-323]
- IC50: 842 nM

Compound: CCc1ncnc(-c2ccc(C(=O)N3CCC4(CNC4)C3)c(F)c2)c1C#Cc1ccc(N)nc1 [Example E-324]
- IC50: 935 nM

Compound: CCc1ncnc(-c2ccc(C(=O)N3CCOC4(CCN(C(=O)OC(C)(C)C)CC4)C3)c(F)c2)c1C#Cc1ccc(N)nc1 [Example E-325]
- IC50: 1180 nM

Compound: CCc1ncnc(-c2ccc(C(=O)N3CCOC4(CCNCC4)C3)c(F)c2)c1C#Cc1ccc(N)nc1 [Example E-326]
- IC50: 367 nM

Compound: CCc1ncnc(-c2ccc(C(=O)N3CCC4(CCN(C(=O)OC(C)(C)C)CC4)C3)c(F)c2)c1C#Cc1ccc(N)nc1 [Example E-327]
- IC50: 1360 nM

Compound: CCc1ncnc(-c2ccc(C(=O)N3CCC4(CCNCC4)C3)c(F)c2)c1C#Cc1ccc(N)nc1 [Example E-328]
- IC50: 586 nM

Compound: CCc1ncnc(-c2ccc(C(=O)N3C[C@H]4CN(C(=O)OC(C)(C)C)C[C@H]4C3)c(F)c2)c1C#Cc1ccc(N)nc1 [Example E-329]
- IC50: 238 nM

Compound: CCc1ncnc(-c2ccc(C(=O)N3C[C@H]4CNC[C@H]4C3)c(F)c2)c1C#Cc1ccc(N)nc1 [Example E-330]
- IC50: 601 nM

Compound: CCc1ncnc(-c2ccc(C(=O)N3C[C@@H]4CCN(C(=O)OC(C)(C)C)[C@@H]4C3)c(F)c2)c1C#Cc1ccc(N)nc1 [Example E-331]
- IC50: 151 nM
